Laboratory results as given in US8158621B2, “Methods of treating or preventing autoimmune diseases with 2,4-pyrimidinediamine compounds” (Rigel Pharmaceuticals, Inc., priority 2002, dated 2012).

Columns and labels:
[1] = system: cultured human mast cells (CHMC); experiment: CHMC high cell density IgE activation: hexos; type: cell-based
[2] = system: cultured human mast cells (CHMC); experiment: CHMC high cell density IgE activation: TNFalpha; type: cell-based; details: read-out: CHMC high density TNF-alpha
In short: (§1)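 IgE-sensitized CHMC at 1-2 ×10^6 cells/ml were preincubated with compound (0.5% DMSO) for 1 h at 37 °C, then stimulated with anti-IgE for 1 h before supernatant collection. Pellets were reincubated with compound for 7 h at 37 °C, and mediators were measured by ELISA on diluted supernatants.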

Jurkat cells = experiment: Jurkat toxicity, Cell Titer Glo assay; type: cell-based, human
Description: Seed 50 μl cells (1×10^6/ml) into each well containing 50 μl compound. […] Shake plates for 1 minute to mix cells and compound. Incubate plates at 37° C. […] Next day, harvest 50 μl cells from each well, add to 50 μl Cell Titer Glo reagent ([…]). Shake plates for 1 minute. Read on luminometer.

[3] = system: cultured human mast cells (CHMC); experiment: CHMC low cell density IgE activation: tryptase assay; type: cell-based
In short: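 Degranulation was triggered with anti-IgE for 30 minutes at 37° C in cultured human mast cells seeded at low density (1000-1500 cells/well, chosen by donor) after a 1 hr equilibration in MT buffer. Released tryptase in cleared supernatant was quantified with a tryptase substrate at room temperature for 30 minutes.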

[4] = system: cultured human mast cells (CHMC); experiment: CHMC high cell density IgE activation: LTC4; type: cell-based
In short: as §1

[5] = system: cultured human mast cells (CHMC); experiment: CHMC high cell density IgE activation: tryptase; type: cell-based
[6] = system: Human Jurkat T-cells (clone N); experiment: Jurkat T-cell activation (anti-TCR, CD69 upregulation); type: cell-based
In short: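 Readout is CD69 upregulation by flow cytometry (anti-CD69-APC, 20 min at 4 °C) after 20 h anti-TCR (C305, 500 ng/ml) stimulation at 37 °C.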

B-cell line BJAB = experiment: BJAB toxicity, Cell Titer Glo assay; type: cell-based
Description: Seed 50 μl cells (1×10^6/ml) into each well containing 50 μl compound. The final vehicle concentration is 0.5% DMSO, 1.5% MeOH. Shake plates for 1 minute to mix cells and compound. Incubate plates at 37° C. (5% CO2) for 18 hours. Next day, harvest 50 μl cells from each well, add to 50 μl Cell Titer Glo reagent ([…]). Shake plates for 1 minute. Read on luminometer.

[7] = system: cultured human mast cells (CHMC); experiment: CHMC low cell density ionomycin activation: tryptase assay; type: cell-based
[8] = system: bone marrow derived mast cells (BMMC); experiment: BMMC high cell density IgE activation: LTC4; type: cell-based, mouse; details: High Density section of TABLE 1, BMMC, anti-IgE activation, LTC4; read-out: BMMC anti-IgE LTC4 IC50
Description: (§2) After sensitizing, cells are counted, pelleted (1000 rpm, 5-10 minutes), and resuspended at 1-3×10^6 cells/ml in MT buffer. Add 100 ul of cell suspension to each well and 100 ul of compound dilutions. The final vehicle concentration is 0.5% DMSO. Incubate at 37° C. (5% CO2) for 1 hour. After 1 hour of compound treatment, stimulate cells with 6× stimulus (60 ng/ml DNP-BSA). Mix wells with the cells and allow plates to incubate at 37° C. (5% CO2) for one hour. After 1 hour incubation, pellet cells (10 minutes, 1000 RPM) and collect 200 ul per well of the supernatant, being careful not to disturb pellet, and transfer to a clean tube or 96-well plate. Place the supernatant plate on ice. During the 4-5 hour step (see next) perform the hexosiminidase assay. Resuspend cell pellet in 240 ul WEI-conditioned media containing 0.5% DMSO and corresponding concentration of compound. Incubate BMMC cells for 4-5 hours at 37° C. (5% CO2). After incubation, pellet cells (1000 RPM, 10 minutes) and collect 225 ul per well and place in −80° C. until ready to perform ELISAS. ELISAS are performed on appropriately diluted samples (determined empirically for each donor cell population so that the sample measurement falls within the standard curve) following the supplier's instructions.

[9] = system: bone marrow derived mast cells (BMMC); experiment: BMMC high cell density IgE activation: TNFalpha; type: cell-based, mouse; details: High Density section of TABLE 1, BMMC, anti-IgE activation, TNFalpha; read-out: BMMC anti-IgE TNF-alpha IC50
In short: (§3)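 Mediator release from sensitized BMMC: after 1 h compound exposure at 37 °C (0.5% DMSO), cells challenged with DNP-BSA for 1 h and early supernatant collected. Cells then recultured 4-5 h in conditioned medium with compound; cytokines IL-6 and TNFα quantified by ELISA.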

[10] = system: bone marrow derived mast cells (BMMC); experiment: BMMC high cell density IgE activation: IL-6; type: cell-based, mouse; details: High Density section of TABLE 1, BMMC, anti-IgE activation, IL-6; read-out: BMMC anti-IgE IL-6 IC50
In short: as §3

[11] = system: bone marrow derived mast cells (BMMC); experiment: BMMC high cell density IgE activation: hexosaminidase; type: cell-based, mouse; details: High Density section of TABLE 1, BMMC, anti-IgE activation, hexosaminidase; read-out: BMMC anti-IgE hexos. IC50
[12] = system: bone marrow derived mast cells (BMMC); experiment: BMMC high cell density IgE activation: histamine; type: cell-based, mouse; details: High Density section of TABLE 1, BMMC, anti-IgE activation, histamine; read-out: BMMC anti-IgE histamine IC50
Description: as §2

[13] = system: cultured human mast cells (CHMC); experiment: CHMC high cell density IgE activation: IL-13; type: cell-based
Description: After sensitizing, cells are counted, pelleted (1000 rpm, 5-10 minutes), and resuspended at 1-2 ×10^6 cells/ml in MT buffer. Add 100 ul of cell suspension to each well and 100 ul of compound dilutions. The final vehicle concentration is 0.5% DMSO. Incubate at 37° C. (5% CO2) for 1 hour. After 1 hour of compound treatment, stimulate cells with 6× anti-IgE. Mix wells with the cells and allow plates to incubate at 37° C. (5% CO2) for one hour. After 1 hour incubation, pellet cells (10 minutes, 1000 RPM) and collect 200 ul per well of the supernatant, being careful not to disturb pellet. Place the supernatant plate on ice. During the 7-hour step (see next) perform tryptase assay on supernatant that had been diluted 1:500. Resuspend cell pellet in 240 ul of CM media containing 0.5% DMSO and corresponding concentration of compound. Incubate CHMC cells for 7 hours at 37° C. (5% CO2). After incubation, pellet cells (1000 RPM, 10 minutes) and collect 225 ul per well and place in −80° C. until ready to perform ELISAS. ELISAS are performed on appropriately diluted samples (determined empirically for each donor cell population so that the sample measurement falls within the standard curve) following the supplier's instructions.

[14] = system: basophil cells (human peripheral blood); experiment: Basophil anti-IgE activation: histamine release assay; type: cell-based; details: basophils, anti-IgE activation, histamine release; read-out: Basophils anti-IgE Histamine IC50
Description: (§4) The basophil activation assay was carried out using whole human peripheral blood from donors allergic to dust mites with the majority of the red blood cells removed by dextran sedimentation. Human peripheral blood was mixed 1:1 with 3% dextran T500 and RBCs were allowed to settle for 20-25min. The upper fraction was diluted with 3 volumes of D-PBS and cells were spun down for 10 min at 1500 rpm, RT. Supernatant was aspirated and cells were washed in an equal volume MT-buffer. Finally, cells were resuspended in MT-buffer containing 0.5% DMSO in the original blood volume. 80 uL cells were mixed with 20 uL compound in the presence of 0.5% DMSO, in triplicate, in a V-bottom 96-well tissue culture plate. A dose range of 8 compound concentrations was tested resulting in a 10-point dose response curve including maximum (stimulated) and minimum (unstimulated) response. […] The cells were stimulated for 30 minutes at 37° C., 5% CO2. The plate was spun for 10 min at 1500 rpm at room temperature and 80 uL the supernatant was harvested for histamine content analysis using the histamine ELISA kit supplied by Immunotech. The ELISA was performed according to supplier's instructions.

[15] = system: basophil cells (human peripheral blood); experiment: Basophil ionomycin activation: histamine release assay; type: cell-based; details: basophils, ionomycin activation, histamine release; read-out: Basophils Ionomycin Histamine IC50
In short: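 Dextran-sedimented leukocytes from peripheral blood of dust-mite-allergic human donors were incubated with compound (8 concentrations, 0.5% DMSO, triplicate) and then stimulated with 2 μM ionomycin stock (20 μl added) for 30 min at 37° C. Histamine released into the supernatant was measured by ELISA.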

[16] = system: cultured human mast cells (CHMC); experiment: CHMC high cell density IgE activation: histamine; type: cell-based
In short: as §1

[17] = system: basophil cells (human peripheral blood); experiment: Basophil dustmite activation: histamine release assay; type: cell-based; details: basophils, dust mite activation
Description: as §4

Syk kinase [18] = molecular target: T1, Syk kinase (Homo sapiens, UniProt P43405); experiment: Syk kinase biochemical fluorescence polarization assay; details: isolated Syk kinase, fluorescence polarization, 4 uM ATP
T1 construct: purchased Upstate, Lake Placid NY

Syk kinase [19] = experiment: Phosphorylation of proteins in the FcεRI cascade in activated CHMC cells; type: cell-based, human; details: activated CHMC cells (FIG. 10)
Description: Following electrophoresis, the phosphorylation of the proteins indicated in FIGS. 7, 10 and 11A-D were assessed by immunoblot. Antibodies were purchased from Cell Signaling Technology, Beverley, Mass.

[20] = Low Density, read-out: CHMC anti-IgE Tryptase
[21] = Low Density, read-out: CHMC Ionomycin Tryptase
[22] = Low Density CHMC, ionomycin activation, tryptase release, read-out: CHMC Ionomycin Tryptase IC50

IC50 [1] [nM] | IC50 [2] [nM] | IC50 [3, 20] [nM] | IC50 [5] [nM] | IC50 [6] [nM] | IC50 [7, 21] [nM] | IC50 [8] [nM] | IC50 [9] [nM] | IC50 [10] [nM] | IC50 [11] [nM] | IC50 [12] [nM] | IC50 [13] [nM] | Compound | IC50 (Jurkat cells) [nM] | IC50 (B-cell line BJAB) [nM] | further results
647 | > 2000 | 930 | 1210 | 5370 | > 10000 |  |  |  |  |  |  | OCCOc1cccc(Nc2ncc(F)c(Nc3cccc(OCCO)c3)n2)c1 [Compound R935075] | > 4330 | > 4330 | IC50 [4]: < 220 nM
 |  | 164 |  | 1080 | > 10000 | 288 | < 220 | < 220 | < 220 | < 220 |  | Nc1cccc(Nc2ncc(F)c(Nc3ccc4c(c3)OCCO4)n2)c1 [Compound R950207] | > 4330 |  | 
1110 | 1880 |  | 1230 | 3270 |  |  |  |  |  |  | > 10000 | O=C(NCCO)c1cc2cc(Nc3ncc(F)c(Nc4cccc(O)c4)n3)ccc2o1 [Compound R926497] |  |  | IC50 ([3]; Low Density CHMC, anti-IgE activation, tryptase release, read-out: CHMC anti-IgE Tryptase IC50): 138 nM; IC50 [14]: 270 nM; IC50 [7, 22]: > 10000 nM; IC50 [15]: > 10000 nM; IC50 [16]: 1330 nM; IC50 [17]: 205 nM
 |  | 149 |  | 1840 | > 10000 | 433 | 220 | < 220 | < 220 | < 220 |  | CC(C)Oc1ccc(Nc2nc(Nc3cccc(OCCO)c3)ncc2F)cc1 [Compound R935156] | 4050 |  | 
577 | 2250 | 132 | 642 | 2170 | > 10000 |  |  |  |  |  | 1780 | Cc1cc(Nc2ncc(F)c(Nc3cccc(O)c3)n2)cc(Cl)c1O [Compound R940233] | > 4330 | > 4330 | IC50 (Syk kinase [18]): 151 nM; IC50 [4]: 118 nM; IC50 [16]: 586 nM
 |  | 127 |  | 1650 | > 10000 | 547 | 131 | 41 | 104 | 85 |  | OCCOc1cccc(Nc2ncc(F)c(Nc3ccc4c(c3)OCCO4)n2)c1 [Compound R935154] | > 4330 |  | 
 |  |  |  |  |  |  |  |  |  |  |  | CC(C)(C)n1nc(-c2ccc(Cl)cc2)c2c(N)ncnc21 [PP2, reference compound] |  |  | phosphorylation of proteins downstream of LYN kinase but not Syk kinase (Syk kinase [19]): inhibition of phosphorylation of proteins downstream of LYN kinase but not Syk kinase

Compound | IC50 [1] [nM] | IC50 [2] [nM] | IC50 [3, 20] [nM] | IC50 [5] [nM] | IC50 [6] [nM] | IC50 [7, 21] [nM] | IC50 [8] [nM] | IC50 [9] [nM] | IC50 [10] [nM] | IC50 [11] [nM] | IC50 [12] [nM] | IC50 [13] [nM] | IC50 (Jurkat cells) [nM] | IC50 (B-cell line BJAB) [nM] | further results
Fc1cnc(Nc2cccc(OCCN3CCOCC3)c2)nc1Nc1ccc2c(c1)OCCO2 [Compound R926511] |  |  |  |  |  |  |  |  |  |  |  | > 2000 | > 4330 | > 4330 | IC50 [7, 22]: > 10000 nM
O=C(c1cc2cc(Nc3ncc(F)c(Nc4ccc5c(c4)OCCO5)n3)ccc2o1)N1CCNCC1 [Compound R926501] | > 2000 |  |  | > 2000 | 1680 |  |  |  |  |  |  |  | > 4330 | > 4330 | IC50 (Syk kinase [18]): 193 nM; IC50 [15]: > 10000 nM
